Reference: US20240269139A1, “COMPOUNDS FOR TARGETED PROTEIN DEGRADATION OF KINASES” (DANA-FARBER CANCER INSTITUTE, INC., priority 2020, published 2024)
Several values for one entry are separate records, joined by “and”; a condition that tells them apart may be missing. Equal entries are not always repeated. Where two headings read alike, the source gives them in different places.

Experiments:
Format in all cases: cell-based
[1] = molecular target: protein kinases (human kinome) (Homo sapiens, UniProt Q9NYV4)
protein kinases (human kinome) (Homo sapiens, UniProt Q9NYV4), sequence (Q9NYV4 whole entry): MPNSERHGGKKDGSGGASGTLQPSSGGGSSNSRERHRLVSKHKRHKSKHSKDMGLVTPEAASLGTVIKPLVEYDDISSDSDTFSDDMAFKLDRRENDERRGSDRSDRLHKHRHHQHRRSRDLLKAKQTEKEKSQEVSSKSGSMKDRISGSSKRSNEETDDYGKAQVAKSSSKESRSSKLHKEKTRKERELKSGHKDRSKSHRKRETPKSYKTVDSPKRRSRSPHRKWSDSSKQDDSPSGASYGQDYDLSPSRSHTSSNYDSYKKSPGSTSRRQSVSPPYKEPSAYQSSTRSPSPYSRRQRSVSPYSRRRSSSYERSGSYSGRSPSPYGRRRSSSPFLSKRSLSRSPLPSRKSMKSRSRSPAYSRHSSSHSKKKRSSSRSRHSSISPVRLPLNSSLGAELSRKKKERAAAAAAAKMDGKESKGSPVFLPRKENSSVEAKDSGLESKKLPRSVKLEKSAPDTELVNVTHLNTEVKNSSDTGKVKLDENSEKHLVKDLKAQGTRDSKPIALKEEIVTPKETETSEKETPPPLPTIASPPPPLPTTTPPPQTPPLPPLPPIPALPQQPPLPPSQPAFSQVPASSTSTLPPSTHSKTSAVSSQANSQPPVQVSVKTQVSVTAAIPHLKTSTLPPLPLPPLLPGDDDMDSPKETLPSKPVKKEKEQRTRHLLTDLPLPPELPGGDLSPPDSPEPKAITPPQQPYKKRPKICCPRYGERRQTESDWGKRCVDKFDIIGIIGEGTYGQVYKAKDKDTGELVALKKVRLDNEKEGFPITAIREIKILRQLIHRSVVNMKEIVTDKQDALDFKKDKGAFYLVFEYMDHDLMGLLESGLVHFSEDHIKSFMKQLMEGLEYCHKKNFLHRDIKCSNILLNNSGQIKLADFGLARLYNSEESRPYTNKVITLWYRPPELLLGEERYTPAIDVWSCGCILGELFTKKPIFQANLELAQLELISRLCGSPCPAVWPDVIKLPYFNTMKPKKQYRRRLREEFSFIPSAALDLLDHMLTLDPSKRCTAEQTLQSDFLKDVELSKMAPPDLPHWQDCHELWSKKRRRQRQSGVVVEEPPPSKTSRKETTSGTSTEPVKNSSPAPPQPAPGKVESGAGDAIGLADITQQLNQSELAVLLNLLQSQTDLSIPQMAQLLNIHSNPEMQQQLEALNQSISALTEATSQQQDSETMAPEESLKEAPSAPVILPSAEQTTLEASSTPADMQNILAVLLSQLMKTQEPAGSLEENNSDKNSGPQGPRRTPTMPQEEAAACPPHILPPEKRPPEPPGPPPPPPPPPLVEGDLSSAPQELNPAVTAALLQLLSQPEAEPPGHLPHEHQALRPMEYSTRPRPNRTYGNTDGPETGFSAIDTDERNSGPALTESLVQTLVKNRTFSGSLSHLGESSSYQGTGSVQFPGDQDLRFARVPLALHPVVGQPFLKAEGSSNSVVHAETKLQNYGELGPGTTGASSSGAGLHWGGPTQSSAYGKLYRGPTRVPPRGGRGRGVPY

[2] = molecular target: T1, protein kinases (human kinome) (Homo sapiens, UniProt Q96L34)
T1 sequence (Q96L34 1-752): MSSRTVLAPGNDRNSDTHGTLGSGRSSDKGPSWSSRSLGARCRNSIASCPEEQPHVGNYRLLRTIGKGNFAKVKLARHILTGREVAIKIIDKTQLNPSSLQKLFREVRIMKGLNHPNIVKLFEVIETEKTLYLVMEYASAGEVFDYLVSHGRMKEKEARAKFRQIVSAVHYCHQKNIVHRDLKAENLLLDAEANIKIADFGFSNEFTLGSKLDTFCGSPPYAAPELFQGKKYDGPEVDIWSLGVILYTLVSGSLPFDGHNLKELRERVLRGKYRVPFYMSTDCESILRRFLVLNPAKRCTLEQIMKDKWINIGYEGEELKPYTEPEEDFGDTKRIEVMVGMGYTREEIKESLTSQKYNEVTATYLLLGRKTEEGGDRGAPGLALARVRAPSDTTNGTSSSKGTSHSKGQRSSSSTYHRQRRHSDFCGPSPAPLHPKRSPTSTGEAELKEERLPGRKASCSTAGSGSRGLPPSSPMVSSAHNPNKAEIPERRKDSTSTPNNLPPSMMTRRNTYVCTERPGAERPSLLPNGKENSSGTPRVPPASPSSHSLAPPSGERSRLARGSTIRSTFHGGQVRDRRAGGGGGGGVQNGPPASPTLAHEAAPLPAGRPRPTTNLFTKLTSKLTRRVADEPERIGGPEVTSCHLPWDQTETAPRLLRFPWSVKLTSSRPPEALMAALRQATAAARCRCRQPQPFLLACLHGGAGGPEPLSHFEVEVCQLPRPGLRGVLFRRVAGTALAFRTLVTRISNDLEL

[3] = molecular target: T2, protein kinases (human kinome) (Homo sapiens, UniProt Q969Z0); conditions: Accession Q969Z0-1; experiment wp137; direction down
T2 sequence (Q969Z0 108-631): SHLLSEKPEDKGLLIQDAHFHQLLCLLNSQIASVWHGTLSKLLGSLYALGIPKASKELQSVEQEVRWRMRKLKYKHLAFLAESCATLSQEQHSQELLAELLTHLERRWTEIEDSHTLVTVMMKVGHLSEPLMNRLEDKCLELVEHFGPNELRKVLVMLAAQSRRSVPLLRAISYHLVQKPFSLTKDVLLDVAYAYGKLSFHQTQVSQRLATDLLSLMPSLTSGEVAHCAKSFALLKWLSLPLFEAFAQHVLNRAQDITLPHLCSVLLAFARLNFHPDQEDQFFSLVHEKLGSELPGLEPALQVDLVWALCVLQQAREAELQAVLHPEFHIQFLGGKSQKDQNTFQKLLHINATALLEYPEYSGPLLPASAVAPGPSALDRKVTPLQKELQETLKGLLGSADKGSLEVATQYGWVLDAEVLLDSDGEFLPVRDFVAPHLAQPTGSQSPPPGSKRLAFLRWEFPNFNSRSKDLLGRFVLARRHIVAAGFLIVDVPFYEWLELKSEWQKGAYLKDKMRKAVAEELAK

[4] = molecular target: protein kinases (human kinome) (Homo sapiens, UniProt Q8NI60); conditions: experiment wp137
protein kinases (human kinome) (Homo sapiens, UniProt Q8NI60), sequence (Q8NI60 163-647): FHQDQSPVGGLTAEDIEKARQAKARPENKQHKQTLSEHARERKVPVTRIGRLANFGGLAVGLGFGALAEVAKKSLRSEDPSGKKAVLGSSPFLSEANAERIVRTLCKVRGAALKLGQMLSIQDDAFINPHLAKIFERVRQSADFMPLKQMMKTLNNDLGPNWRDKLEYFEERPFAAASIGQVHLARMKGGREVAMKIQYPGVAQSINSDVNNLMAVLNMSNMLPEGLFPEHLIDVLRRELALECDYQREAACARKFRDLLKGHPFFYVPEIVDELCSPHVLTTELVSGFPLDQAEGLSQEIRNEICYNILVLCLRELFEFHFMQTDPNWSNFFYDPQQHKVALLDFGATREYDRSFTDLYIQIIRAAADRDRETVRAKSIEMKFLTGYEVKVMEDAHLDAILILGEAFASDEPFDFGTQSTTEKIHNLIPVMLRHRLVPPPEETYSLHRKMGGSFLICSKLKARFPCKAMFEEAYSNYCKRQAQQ

[5] = molecular target: protein kinases (human kinome) (Homo sapiens, UniProt P50613); conditions: for logFC CDK7: CDK7 P50613
protein kinases (human kinome) (Homo sapiens, UniProt P50613), sequence (P50613 whole entry): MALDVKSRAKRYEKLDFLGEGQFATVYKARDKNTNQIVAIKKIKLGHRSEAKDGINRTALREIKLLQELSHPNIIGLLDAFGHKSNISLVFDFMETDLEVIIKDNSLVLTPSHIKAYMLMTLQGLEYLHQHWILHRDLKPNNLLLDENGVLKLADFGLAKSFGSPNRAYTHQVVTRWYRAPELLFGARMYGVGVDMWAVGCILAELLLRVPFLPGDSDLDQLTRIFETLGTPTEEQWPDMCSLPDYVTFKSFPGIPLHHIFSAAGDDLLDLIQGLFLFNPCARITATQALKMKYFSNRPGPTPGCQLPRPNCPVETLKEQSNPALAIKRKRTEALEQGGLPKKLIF

[6] = molecular target: protein kinases (human kinome) (Homo sapiens, UniProt Q00535)
protein kinases (human kinome) (Homo sapiens, UniProt Q00535), sequence (Q00535 whole entry): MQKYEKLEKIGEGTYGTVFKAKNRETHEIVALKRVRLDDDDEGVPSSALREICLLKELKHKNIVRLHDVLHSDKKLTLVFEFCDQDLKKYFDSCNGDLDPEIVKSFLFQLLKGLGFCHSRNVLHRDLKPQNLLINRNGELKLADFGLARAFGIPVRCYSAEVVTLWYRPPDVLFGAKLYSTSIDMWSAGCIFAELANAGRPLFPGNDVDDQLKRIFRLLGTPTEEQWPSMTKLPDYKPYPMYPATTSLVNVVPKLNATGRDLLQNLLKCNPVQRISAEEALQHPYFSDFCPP

[7] = molecular target: protein kinases (human kinome) (Homo sapiens, UniProt Q14004); conditions: for logFC CDK13: Accession Q14004-1
protein kinases (human kinome) (Homo sapiens, UniProt Q14004), sequence (Q14004 whole entry): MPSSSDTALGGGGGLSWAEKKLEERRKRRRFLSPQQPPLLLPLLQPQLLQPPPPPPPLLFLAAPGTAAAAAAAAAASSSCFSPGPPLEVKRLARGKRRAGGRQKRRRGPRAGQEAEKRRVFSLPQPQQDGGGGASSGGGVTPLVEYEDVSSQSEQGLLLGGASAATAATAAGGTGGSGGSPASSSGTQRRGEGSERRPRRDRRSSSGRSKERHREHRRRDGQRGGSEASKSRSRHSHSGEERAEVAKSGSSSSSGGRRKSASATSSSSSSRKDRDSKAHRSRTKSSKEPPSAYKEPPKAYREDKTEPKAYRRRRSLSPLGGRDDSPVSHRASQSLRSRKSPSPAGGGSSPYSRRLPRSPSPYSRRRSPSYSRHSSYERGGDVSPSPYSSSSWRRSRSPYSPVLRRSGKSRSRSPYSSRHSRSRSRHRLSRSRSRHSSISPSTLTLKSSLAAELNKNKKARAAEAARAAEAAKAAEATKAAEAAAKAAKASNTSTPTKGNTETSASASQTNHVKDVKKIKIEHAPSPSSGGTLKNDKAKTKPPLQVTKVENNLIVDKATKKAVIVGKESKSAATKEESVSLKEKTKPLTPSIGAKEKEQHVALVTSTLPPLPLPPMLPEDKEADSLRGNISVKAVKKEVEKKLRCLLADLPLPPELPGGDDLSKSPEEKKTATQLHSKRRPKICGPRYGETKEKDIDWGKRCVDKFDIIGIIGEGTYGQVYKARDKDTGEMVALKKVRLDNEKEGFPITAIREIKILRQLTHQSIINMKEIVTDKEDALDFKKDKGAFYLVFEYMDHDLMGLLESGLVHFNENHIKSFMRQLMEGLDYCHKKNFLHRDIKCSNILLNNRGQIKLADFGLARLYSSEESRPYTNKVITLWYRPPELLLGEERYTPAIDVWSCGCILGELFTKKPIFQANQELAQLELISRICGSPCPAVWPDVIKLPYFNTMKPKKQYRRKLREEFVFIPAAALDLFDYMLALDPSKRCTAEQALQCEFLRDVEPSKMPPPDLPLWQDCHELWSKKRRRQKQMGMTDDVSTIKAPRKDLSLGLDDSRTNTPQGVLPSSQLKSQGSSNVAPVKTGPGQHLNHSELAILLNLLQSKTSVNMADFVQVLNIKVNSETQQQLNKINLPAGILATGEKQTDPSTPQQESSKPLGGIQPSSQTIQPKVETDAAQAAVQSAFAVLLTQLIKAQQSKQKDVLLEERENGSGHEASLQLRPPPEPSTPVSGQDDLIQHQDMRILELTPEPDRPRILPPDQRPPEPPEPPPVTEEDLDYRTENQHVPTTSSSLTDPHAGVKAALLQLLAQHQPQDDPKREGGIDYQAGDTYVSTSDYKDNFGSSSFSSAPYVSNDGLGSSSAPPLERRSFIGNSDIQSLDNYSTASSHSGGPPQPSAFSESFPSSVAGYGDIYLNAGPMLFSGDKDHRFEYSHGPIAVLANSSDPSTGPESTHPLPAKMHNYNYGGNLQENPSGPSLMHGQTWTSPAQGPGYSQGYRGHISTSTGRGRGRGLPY

## CC(C)S(=O)(=O)c1ccccc1Nc1nc(Nc2ccc(N3CCN(CCOCCOCCNC(=O)CNc4cccc5c4C(=O)N(C4CCC(=O)NC4=O)C5=O)CC3)cc2)ncc1Cl (centres unmarked) [TL12.186]
[1]; Accession Q9NYV4-1, experiment wp016
  logFC CDK12: −0.9185
[1]; Accession Q9NYV4-1, experiment wp131
  logFC CDK12: −1.402
[1]; CDK12 (Q9NYV4-1), experiment wp016
  logFC CDK12: −0.9185
[1]; CDK12 (Q9NYV4-1), experiment wp131
  logFC CDK12: −1.402
[2]; Accession Q96L34-1, experiment wp137
  logFC MARK4: −1.298
[2]; experiment wp131
  logFC MARK4 (Q96L34-1): −1.829
[2]; experiment wp137
  logFC MARK4 (Q96L34-1): −1.298
[3]
  logFC TBRG4: −0.3425
[4]
  logFC COQ8A (Q8N160-1): −0.4564
  logFC COQ8A (Q8NI60-1): −0.4564
[5]; CDK7 (P50613) protein abundance, degrader vs DMSO, down
  logFC: −0.7603 and −0.6447 and −0.7438
[5]; experiment wp016
  logFC CDK7: −0.7603
[5]; experiment wp131
  logFC CDK7: −0.6447
[5]; experiment wp137
  logFC CDK7: −0.7438
[6]; Accession Q00535, experiment wp016
  logFC of CDK5: −0.9261
[6]; experiment wp016, direction of change down
  logFC CDK5 (Q00535): −0.9261
[6]; experiment wp131
  logFC CDK5 (Q00535): −1.3
[6]; experiment wp131, direction of change down
  logFC CDK5 (Q00535): −1.3
[6]; experiment wp137
  logFC CDK5 (Q00535): −1.234
[6]; experiment wp137, direction of change down
  logFC CDK5 (Q00535): −1.234
[7]; experiment wp016
  logFC CDK13: −0.5885
[7]; experiment wp131
  logFC CDK13: −0.7903
  logFC CDK13 (Q14004-1): −0.7903
[7]; experiment wp137
  logFC CDK13: −0.7062
  logFC CDK13 (Q14004-1): −0.7062
[7]; CDK13 (Q14004-1), experiment wp016
  logFC: −0.5885
